Laboratory results as given in patent US5409946A, “Isoxazole, isothiazole and pyrazole compounds that enhance cognitive function” (Abbott Laboratories, priority 1993, dated 1995).

Assays:
[1] = system: resting cortical perfusion in the parietotemporal cortex; conditions: humans; cited from earlier work
[2] = system: spike wave discharges; assay: Attenuation of petit mal absence-like spike wave discharges (EEG); type: in vivo, male Wistar rats; conditions: for Total spike wave duration: 5.0 μmol/kg i.p.
Protocol: Animals: Male albino rats of the Wistar strain (CAMM Research) were maintained on a 12:12 hour light-dark cycle and individually housed throughout these experiments. They were fed standard rodent diet with food and water provided ad libitum.
EEG Recordings: To record spike wave discharges, rats were surgically implanted with permanently affixed EEG electrodes over the frontal codex using previously described techniques (Radek, Brain Res., 1993, in press). After at least a ten day recovery from this surgery, EEG recordings were made inside darkened sound attenuating chambers. Rats were allowed to move freely within the chambers and computerized activity monitors recorded animal motion during these studies. Only those rats that express spike wave discharges, as identified from preliminary recordings, were used to test the effects of nicotinic agents.
Drug studies: EEG recordings were obtained from each rat for a period of 20 minutes of total waking immobility immediately after administration of drug, or a drug-free control solution. Immobility was characterized as the absence of infrared beam interruptions from the activity monitor system. Spike wave activity was identified as regular 6-10 Hz complexes with amplitudes of 0.4 to 1.0 mV. The total spindling duration for 20 minutes of waking immobility was calculated by determining the length (in seconds) of each spike wave burst, and adding each of these times together to obtain a total spindle time for the recording session. Each rat was administered the control solution and one or two doses of the test compounds and each dosing was given at least 48 hours after the previous treatment.
The compound of Example 2 was dissolved in saline to the desired concentration.

[3] = system: neuronal nicotinic cholinergic channels in PC12 cells; assay: Cholinergic channel activator action in PC12 cells, whole-cell patch-clamp; type: cell-based, rat; conditions: 10 μM antagonist; Example 2 300 μM; N=3
Protocol: Electrophysiologic recordings were obtained from differentiated (neurite-bearing) cells after 4-7 days exposure to NGF. […] After 20 minutes, differentiating medium was added (DMEM containing 100 ng/ml nerve growth factor, 5% heat-inactivated fetal calf serum and 2.5% heat-inactivated horse serum) and the cells were refed with this medium every 3 days.
The intracellular (recording pipette) solution consisted of 140 mM KCl, 1.0 mM CaCl2, 2.0 mM MgCl2, 11 mM K-EGTA, and 10 mM K-HEPES buffer (7.3 pH, 315 mOsm). Osmolarities were adjusted using dextrose such that the extracellular solution was 10 mOsm hypertonic compared to the intracellular solution. Voltage-gated inward (sodium) and outward (potassium) currents were monitored throughout the experiment to determine establishment and maintenance of the whole-cell recording configuration.

[4] = system: cognitive function; conditions: acutely and chronically administered; cited from earlier work
[5] = cited from earlier work
[6] = system: nicotinic receptors; conditions: chronic administration, without affecting affinity; cited from earlier work
[7] = system: signs and symptoms of nicotine withdrawal; conditions: double-blind studies; cited from earlier work

Compound: CNC1(C)C2CCC(C2)C1(C)C (centres unmarked) [Mecamylamine, mecamylamine]
- effect on resting cortical perfusion [1]: reduces resting cortical perfusion in the parietotemporal cortex of humans
- Total spike wave duration ([2]; Table 10): 45.7 ± 15.0 s
- Total spike wave duration ([2]; Table 11): 46.8 ± 6.4 s
- effect on incidence of spike wave discharges ([2]; i.p., 20 min waking immobility, p<0.05 where significant): did not affect the incidence of spike/wave discharges
- blockade of agonist-induced lowering of spike wave discharges ([2]; mecamylamine with (-)-nicotine or Example 2): blocked the effects of both (-)-nicotine and the compound of Example 2
- inhibition of the response to Example 2 [3]: 81±3%

Compound: CN1CCCC1c1cccnc1 (centres unmarked) [nicotine]
- effect on cognitive function [4]: enhances cognitive function in rats
- pharmacokinetics ([5]; in vivo): unfavorable pharmacokinetics
- oral bioavailability ([5]; oral): poor oral bioavailability
- up-regulation of number of receptors [6]: 50-100%
- suppression of withdrawal signs and symptoms versus placebo [7]: far superior to a placebo
